# Experimental data reported in patent publication EP2649091B1, “IMMUNE RESTRICTED PEPTIDES WITH INCREASED EFFICACY” (Stichting Het Nederlands Kanker Instituut, priority 2010, dated 2012).
# Tests used:
# [1] = system: SVYDFFVWL (TRP-2 180-188) reactive T cells; experiment: T cell activation time course assay, IFNγ production (FACS), TRP-2 epitope; settings: for % CD8+ T cells producing IFN-γ peptide concentrations in picomolar 24H 0.5 / Geometric mean IFN-γ in arbitrary fluorescence units peptide concentrations in picomolar 24H 0.5 / % CD8+ T cells producing IFN-γ peptide concentrations in picomolar 48H 0.5 / Geometric mean IFN-γ in arbitrary fluorescence units peptide concentrations in picomolar 48H 0.5: peptide 0.5 pM; for % CD8+ T cells producing IFN-γ peptide concentrations in picomolar 24H 50 / Geometric mean IFN-γ in arbitrary fluorescence units peptide concentrations in picomolar 24H 50 / % CD8+ T cells producing IFN-γ peptide concentrations in picomolar 48H 50 / Geometric mean IFN-γ in arbitrary fluorescence units peptide concentrations in picomolar 48H 50: peptide 50 pM; for % CD8+ T cells producing IFN-γ peptide concentrations in picomolar 24H 5·10^3 / Geometric mean IFN-γ in arbitrary fluorescence units peptide concentrations in picomolar 24H 5·10^3 / % CD8+ T cells producing IFN-γ peptide concentrations in picomolar 48H 5·10^3 / Geometric mean IFN-γ in arbitrary fluorescence units peptide concentrations in picomolar 48H 5·10^3: peptide 5·10^3 pM
# HLA-A0201 = HLA-A0201 (Homo sapiens, UniProt P04439, D140Y/D185E/D98H/E176V/E277Q/G131W/G231S/I119V/I121R/I166T/I218V/L300P/L318F/N151K/N90K/P208A/P217A/Q86G/Q94H/R138H/R169H/T345S); format: binding
Substance,% CD8+ T cells producing IFN-γ peptide concentrations in picomolar 24H 0.5 [1] [%],Geometric mean IFN-γ in arbitrary fluorescence units peptide concentrations in picomolar 24H 0.5 [1],% CD8+ T cells producing IFN-γ peptide concentrations in picomolar 24H 50 [1] [%],Geometric mean IFN-γ in arbitrary fluorescence units peptide concentrations in picomolar 24H 50 [1],% CD8+ T cells producing IFN-γ peptide concentrations in picomolar 24H 5·10^3 [1] [%],Geometric mean IFN-γ in arbitrary fluorescence units peptide concentrations in picomolar 24H 5·10^3 [1],% CD8+ T cells producing IFN-γ peptide concentrations in picomolar 48H 0.5 [1] [%],Geometric mean IFN-γ in arbitrary fluorescence units peptide concentrations in picomolar 48H 0.5 [1],% CD8+ T cells producing IFN-γ peptide concentrations in picomolar 48H 50 [1] [%],Geometric mean IFN-γ in arbitrary fluorescence units peptide concentrations in picomolar 48H 50 [1],% CD8+ T cells producing IFN-γ peptide concentrations in picomolar 48H 5·10^3 [1] [%],Geometric mean IFN-γ in arbitrary fluorescence units peptide concentrations in picomolar 48H 5·10^3 [1],% inhibition at T=4H and T=24H FP 4h (HLA-A0201) [%],% inhibition at T=4H and T=24H FP 24h (HLA-A0201) [%],% inhibition at T=4H and T=24H FP 4H (HLA-A0201) [%],% inhibition at T=4H and T=24H FP 24H (HLA-A0201) [%],IC50 Ratio (HLA-A0201)
[CSME][NVA]YDFFVW[PRG],0,67 arbitrary fluorescence units,6,80 arbitrary fluorescence units,26,175 arbitrary fluorescence units,1,93 arbitrary fluorescence units,1,67 arbitrary fluorescence units,26,130 arbitrary fluorescence units,78,78,,,
[CSCF3][2-AOC]YDFFVWL,,,,,,,,,,,,,,,91,79,
[am-phg][2-AOC]YDFFVW[ALG],0,98 arbitrary fluorescence units,1,69 arbitrary fluorescence units,7,79 arbitrary fluorescence units,0,76 arbitrary fluorescence units,0,80 arbitrary fluorescence units,4,71 arbitrary fluorescence units,73,73,,,
[am-phg]AAGIGI[4-FPHE]TV,,,,,,,,,,,,,62,59,,,2.1
[am-phg][2-AOC]YDFFVWL,0,78 arbitrary fluorescence units,12,82 arbitrary fluorescence units,31,215 arbitrary fluorescence units,0,88 arbitrary fluorescence units,1,70 arbitrary fluorescence units,30,143 arbitrary fluorescence units,94,87,,,
[CSME]AAGIGI[4-FPHE]TV,,,,,,,,,,,,,63,58,,,
[PHG][2-AOC]YDFFVW[PRG],0,95 arbitrary fluorescence units,1,68 arbitrary fluorescence units,20,120 arbitrary fluorescence units,1,79 arbitrary fluorescence units,0,78 arbitrary fluorescence units,0,78 arbitrary fluorescence units,83,78,,,
[am-phg][NVA]YDFFVW[PRG],0,64 arbitrary fluorescence units,7,77 arbitrary fluorescence units,26,181 arbitrary fluorescence units,0,71 arbitrary fluorescence units,1,57 arbitrary fluorescence units,23,132 arbitrary fluorescence units,88,80,,,
